# Test results from patent US7666617B2, “Devices and methods for profiling enzyme substrates” (University of Maryland, Baltimore County, priority 2005, dated 2010).
# Assays:
# endogenous kinase NM23 = assay: Endogenous NM23 kinase signal (internal control) in the CK2α reverse in-gel kinase assay; conditions: 75 μM apigenin in assay buffer; LNCaP lysate
# Method: 300 μg of LNCaP lysate was treated with bacteriophage λ phosphatase at 30° C. for 1 hour. The lysate was then precipitated with TCA, resolublized in IEF rehydration buffer and applied to CKα reverse in-gel kinase assay with 25 μg of recombinant human CK2α cast in the gel. 75 μM apigenin was added in the reverse in-gel kinase assay buffer and a parallel assay was performed with same volume of vehicle (DMSO) added to the reaction buffer.
# Protein Kinase A (PKA) = assay: PKA RIKA of TBB-treated LNCaP cell extract; format: cell-based; conditions: TBB-treated vs vehicle-treated LNCaP lysate; RIKA gel with 50 μg/ml recombinant PKA
# Method: FIG. 8A-8B, an equivalent mass of protein used for the RIKA shown in FIGS. 7A-7E was applied to a RIKA gel containing 50 μg/ml recombinant PKA. Arrows designates the activity of the endogenous kinase NM23 H1 which serves as an internal control. FIG. 8A is an autoradiogram of the PKA RIKA using the vehicle-treated lysates.
effect on endogenous kinase NM23 signal (endogenous kinase NM23),Compound,"signal intensity of proteins detected in PKA RIKA, TBB-treated extract (Protein Kinase A (PKA))"
not affected,"O=c1cc(-c2ccc(O)cc2)oc2cc(O)cc(O)c12 [Apigenin, apigenin]",–
–,"Brc1c(Br)c(Br)c2[nH]nnc2c1Br [TBB, 4,5,6,7 tetrabromobenzotriazole]",No increase
